Data as given in patent US10294202B2, “Pyrrolidinones as herbicides” (FMC Corporation, priority 2013, dated 2019).

Experiments:
ducksalad = test: Test C flooded paddy test; format: in vivo, Heteranthera limosa; conditions: Flood
Procedure, shortened: (§1)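 Visual injury scored against controls after 13 to 15 days in the greenhouse, using 0 (no effect) to 100 (complete control). Test compounds went straight into paddy water held 3 cm above the soil surface on 2-leaf-stage plants, with that flood depth maintained for the whole test.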

ryegrass, Italian = test: Test A pre-/postemergence herbicide test; format: in vivo, Lolium multiflorum
Procedure, shortened: (§2)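 Formulated compound (non-phytotoxic solvent, surfactant) sprayed pre- onto soil of seeded loam/sand pots or post- onto seedlings at 1–2 leaves; ~10 d greenhouse; 0–100 visual control rating versus untreated.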

sedge, umbrella = test: Test C flooded paddy test; format: in vivo, Cyperus difformis; conditions: Flood
Procedure, shortened: as §1

kochia = test: Test C pre-/postemergence herbicide test; format: in vivo, Kochia scoparia; conditions: Postemergence
Procedure, shortened: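 Compound solutions contained surfactant in a non-phytotoxic solvent. These were sprayed onto pots of loam/sand sown with seeds, and onto young plants (2 to 18 cm, 1- to 4-leaf) in sphagnum peat–vermiculite mix. Visual injury scores (0 none, 100 complete control) were recorded after 13 to 15 days.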

chickweed = test: Test C postemergence herbicide test; format: in vivo, Stellaria media
Procedure, shortened: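 Response is scored visually on a 0–100 scale (100 = complete control) relative to untreated controls, 13 to 15 days after treatment. Plants were sprayed postemergence at the 1- to 4-leaf stage (2 to 18 cm tall) and kept in a greenhouse.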

barnyardgrass = test: Test C flooded paddy test; format: in vivo, Echinochloa crus-galli; conditions: Flood
Procedure, shortened: as §1

morningglory = test: Test A pre-/postemergence herbicide test; format: in vivo, Ipomoea spp.
Procedure, shortened: as §2

velvetleaf = test: Test A pre-/postemergence herbicide test; format: in vivo, Abutilon theophrasti
Procedure, shortened: as §2

[1] = 125 g ai/ha, scale of 0 to 100 where 0 is no effect and 100 is complete control, 13 to 15 days
[2] = 250 g ai/ha, scale of 0 to 100 where 0 is no effect and 100 is complete control, 13 to 15 days
[3] = 125 g ai/ha, visual rating, 0 to 100 scale, 0 no effect, 100 complete control, approximately 10 days, preemergence
[4] = Postemergence, 125 g ai/ha, 0 to 100 scale, 0 is no effect, 100 is complete control
[5] = preemergence, 500 g ai/ha, 0 to 100 scale, 0 is no effect and 100 is complete control
[6] = 31 g ai/ha, scale 0 to 100 (0 no effect, 100 complete control)
[7] = 62 g ai/ha, scale 0 (no effect) to 100 (complete control)
[8] = 125 g ai/ha, scale 0 to 100 (0 no effect, 100 complete control)
[9] = 250 g ai/ha, scale 0 to 100 (0 no effect, 100 complete control)
[10] = Postemergence, 125 g ai/ha, 0 to 100 scale, 0 no effect, 100 complete control
[11] = Postemergence, 500 g ai/ha, 0 to 100 scale (0 no effect, 100 complete control)
[12] = Preemergence, 125 g ai/ha, visual rating on 0 to 100 scale (0 no effect, 100 complete control)
[13] = preemergence, 500 g ai/ha, 0 to 100 scale
[14] = 31 g ai/ha, scale 0 (no effect) to 100 (complete control)
[15] = 62 g ai/ha, scale 0 to 100 (0 no effect, 100 complete control)
[16] = 31 g ai/ha, scale of 0 to 100 where 0 is no effect and 100 is complete control, 13 to 15 days
[17] = 62 g ai/ha, scale of 0 to 100 where 0 is no effect and 100 is complete control, 13 to 15 days

O=C1NC[C@H](c2cccc(C(F)(F)F)c2)[C@H]1C(=O)Nc1cccc(F)c1F [Compound 206]
Plant response rating, Ducksalad (ducksalad; [1]): 90
Plant response rating, Ducksalad (ducksalad; [2]): 100
Plant response rating, Ducksalad (ducksalad; 500 g ai/ha, scale 0 to 100): 100
Plant response rating, Ducksalad (ducksalad; 1000 g ai/ha, scale 0 to 100): 100
Plant response rating, Ryegrass, Italian (ryegrass, Italian; [3]): 40
Plant response rating, Ryegrass, Italian (ryegrass, Italian; [4]): 50
Ryegrass, Italian plant response rating (0 to 100 scale, 0 is no effect, 100 is complete control) (ryegrass, Italian; Postemergence, 500 g ai/ha): 60
Plant response rating, Ryegrass, Italian (ryegrass, Italian; [5]): 80
Plant response rating, Sedge, Umbrella (sedge, umbrella; [1]): 0
Plant response rating, Sedge, Umbrella (sedge, umbrella; [2]): 0
Plant response rating, Sedge, Umbrella (sedge, umbrella; 500 g ai/ha, scale 0 to 100): 0
Plant response rating, Sedge, Umbrella (sedge, umbrella; 1000 g ai/ha, scale 0 to 100): 0
Plant response rating, Kochia (kochia; [6]): 50
Plant response rating, Kochia (kochia; [7]): 70
Plant response rating, Kochia (kochia; [8]): 30
Plant response rating, Kochia (kochia; [9]): 70
Plant response rating, Chickweed (chickweed; [6]): 85
Plant response rating, Chickweed (chickweed; [7]): 60
Plant response rating, Chickweed (chickweed; [8]): 85
Plant response rating, Chickweed (chickweed; [9]): 85
Plant response rating, Barnyardgrass (barnyardgrass; [1]): 35
Plant response rating, Barnyardgrass (barnyardgrass; [2]): 60
Plant response rating, Barnyardgrass (barnyardgrass; 500 g ai/ha, scale 0 to 100): 75
Plant response rating, Barnyardgrass (barnyardgrass; 1000 g ai/ha, scale 0 to 100): 85

O=C1NCC(c2ccc(F)c(F)c2)C1C(=O)Nc1cccc(F)c1F (racemic) [Compound 101]
Plant response rating, Ducksalad (ducksalad; [1]): 90
Plant response rating, Ducksalad (ducksalad; 250 g ai/ha, scale 0 to 100): 95
Plant response rating, Ducksalad (ducksalad; 500 g ai/ha, scale 0 to 100): 100
Plant response rating, Ducksalad (ducksalad; 1000 g ai/ha, scale 0 to 100): 100
Plant response rating, Sedge, Umbrella (sedge, umbrella; [1]): 0
Plant response rating, Sedge, Umbrella (sedge, umbrella; 250 g ai/ha, scale 0 to 100): 0
Plant response rating, Sedge, Umbrella (sedge, umbrella; 500 g ai/ha, scale 0 to 100): 0
Plant response rating, Sedge, Umbrella (sedge, umbrella; 1000 g ai/ha, scale 0 to 100): 0
Plant response rating, Morningglory (morningglory; [10]): 30
Plant response rating, Morningglory (morningglory; [11]): 60
Morningglory plant response rating (morningglory; [12]): 0
Plant response rating, Morningglory (morningglory; [13]): 50
Plant response rating, Kochia (kochia; [14]): 45
Plant response rating, Kochia (kochia; [15]): 30
Plant response rating, Kochia (kochia; [8]): 50
Plant response rating, Kochia (kochia; [9]): 50
Plant response rating, Velvetleaf (velvetleaf; [10]): 50
Plant response rating, Velvetleaf (velvetleaf; [11]): 70
Velvetleaf plant response rating (velvetleaf; [12]): 30
Plant response rating, Velvetleaf (velvetleaf; [13]): 40
Plant response rating, Chickweed (chickweed; [14]): 35
Plant response rating, Chickweed (chickweed; [15]): 60
Plant response rating, Chickweed (chickweed; [8]): 70
Plant response rating, Chickweed (chickweed; [9]): 80
Plant response rating, Barnyardgrass (barnyardgrass; [1]): 20
Plant response rating, Barnyardgrass (barnyardgrass; 250 g ai/ha, scale 0 to 100): 55
Plant response rating, Barnyardgrass (barnyardgrass; 500 g ai/ha, scale 0 to 100): 60
Plant response rating, Barnyardgrass (barnyardgrass; 1000 g ai/ha, scale 0 to 100): 75

O=C1NC[C@H](c2cccc(C(F)(F)F)c2)[C@H]1C(=O)Nc1ccccc1F [Compound 204, (3R,4S)—N-(2-fluorophenyl)-2-oxo-4-[3-(trifluoromethyl)phenyl]-3-pyrrolidinecarboxamide]
Plant response rating, Ducksalad (ducksalad; [1]): 50
Plant response rating, Ducksalad (ducksalad; [2]): 95
Plant response rating, Ducksalad (ducksalad; 500 g ai/ha, scale 0 to 100): 100
Plant response rating, Ducksalad (ducksalad; 1000 g ai/ha, scale 0 to 100): 100
Plant response rating, Ryegrass, Italian (ryegrass, Italian; [3]): 20
Plant response rating, Ryegrass, Italian (ryegrass, Italian; [4]): 30
Ryegrass, Italian plant response rating (0 to 100 scale, 0 is no effect, 100 is complete control) (ryegrass, Italian; Postemergence, 500 g ai/ha): 50
Plant response rating, Ryegrass, Italian (ryegrass, Italian; [5]): 50
Plant response rating, Sedge, Umbrella (sedge, umbrella; [1]): 0
Plant response rating, Sedge, Umbrella (sedge, umbrella; [2]): 0
Plant response rating, Sedge, Umbrella (sedge, umbrella; 500 g ai/ha, scale 0 to 100): 0
Plant response rating, Sedge, Umbrella (sedge, umbrella; 1000 g ai/ha, scale 0 to 100): 0
Plant response rating, Kochia (kochia; [6]): 10
Plant response rating, Kochia (kochia; [7]): 30
Plant response rating, Kochia (kochia; [8]): 40
Plant response rating, Kochia (kochia; [9]): 40
Plant response rating, Chickweed (chickweed; [6]): 0
Plant response rating, Chickweed (chickweed; [7]): 30
Plant response rating, Chickweed (chickweed; [8]): 55
Plant response rating, Chickweed (chickweed; [9]): 65
Plant response rating, Barnyardgrass (barnyardgrass; [1]): 50
Plant response rating, Barnyardgrass (barnyardgrass; [2]): 70
Plant response rating, Barnyardgrass (barnyardgrass; 500 g ai/ha, scale 0 to 100): 75
Plant response rating, Barnyardgrass (barnyardgrass; 1000 g ai/ha, scale 0 to 100): 80

O=C1NCC(c2cccc(OC(F)F)c2)C1C(=O)Nc1cccc(F)c1F (stereo not drawn) [Compound 224]
Plant response rating, Ducksalad (ducksalad; [16]): 0
Plant response rating, Ducksalad (ducksalad; [17]): 40
Plant response rating, Ducksalad (ducksalad; [1]): 80
Plant response rating, Ducksalad (ducksalad; [2]): 100
Plant response rating, Ryegrass, Italian (ryegrass, Italian; [3]): 60
Plant response rating, Ryegrass, Italian (ryegrass, Italian; [4]): 50
Ryegrass, Italian plant response rating (0 to 100 scale, 0 is no effect, 100 is complete control) (ryegrass, Italian; Postemergence, 500 g ai/ha): 60
Plant response rating, Ryegrass, Italian (ryegrass, Italian; [5]): 70
Plant response rating, Sedge, Umbrella (sedge, umbrella; [16]): 0
Plant response rating, Sedge, Umbrella (sedge, umbrella; [17]): 0
Plant response rating, Sedge, Umbrella (sedge, umbrella; [1]): 0
Plant response rating, Sedge, Umbrella (sedge, umbrella; [2]): 0
Plant response rating, Kochia (kochia; [6]): 0
Plant response rating, Kochia (kochia; [7]): 40
Plant response rating, Kochia (kochia; [8]): 50
Plant response rating, Kochia (kochia; [9]): 70
Plant response rating, Chickweed (chickweed; [6]): 70
Plant response rating, Chickweed (chickweed; [7]): 70
Plant response rating, Chickweed (chickweed; [8]): 70
Plant response rating, Chickweed (chickweed; [9]): 85
Plant response rating, Barnyardgrass (barnyardgrass; [16]): 0
Plant response rating, Barnyardgrass (barnyardgrass; [17]): 20
Plant response rating, Barnyardgrass (barnyardgrass; [1]): 40
Plant response rating, Barnyardgrass (barnyardgrass; [2]): 60

O=C1NCC(c2ccc(F)c(F)c2)C1C(=O)Nc1ccc(F)c(F)c1F (stereo not drawn) [Compound 346]
Plant response rating, Ducksalad (ducksalad; [1]): 95
Plant response rating, Ducksalad (ducksalad; [2]): 100
Plant response rating, Ducksalad (ducksalad; 500 g ai/ha, scale 0 to 100): 100
Plant response rating, Ducksalad (ducksalad; 1000 g ai/ha, scale 0 to 100): 100
Plant response rating, Ryegrass, Italian (ryegrass, Italian; Postemergence, 125 g ai/ha, visual rating on 0 to 100 scale (0 no effect, 100 complete control), approx. 10 days): 20
Plant response rating, Ryegrass, Italian (ryegrass, Italian; Preemergence, 125 g ai/ha, 0 to 100 scale where 0 is no effect and 100 is complete control): 0
Ryegrass, Italian plant response rating (ryegrass, Italian; Preemergence, 500 g ai/ha, visual rating on 0 to 100 scale (0 no effect, 100 complete control)): 30
Plant response rating, Sedge, Umbrella (sedge, umbrella; [1]): 0
Plant response rating, Sedge, Umbrella (sedge, umbrella; [2]): 0
Plant response rating, Sedge, Umbrella (sedge, umbrella; 500 g ai/ha, scale 0 to 100): 0
Plant response rating, Sedge, Umbrella (sedge, umbrella; 1000 g ai/ha, scale 0 to 100): 0
Plant response rating, Kochia (kochia; [6]): 45
Plant response rating, Kochia (kochia; [7]): 50
Plant response rating, Kochia (kochia; [8]): 45
Plant response rating, Kochia (kochia; [9]): 40
Plant response rating, Chickweed (chickweed; [6]): 40
Plant response rating, Chickweed (chickweed; [7]): 65
Plant response rating, Chickweed (chickweed; [8]): 40
Plant response rating, Chickweed (chickweed; [9]): 85
Plant response rating, Barnyardgrass (barnyardgrass; [1]): 30
Plant response rating, Barnyardgrass (barnyardgrass; [2]): 45
Plant response rating, Barnyardgrass (barnyardgrass; 500 g ai/ha, scale 0 to 100): 65
Plant response rating, Barnyardgrass (barnyardgrass; 1000 g ai/ha, scale 0 to 100): 70
